Values joined by “and” are separate entries in the source; they are usually repeats but may differ in a detail not shown here. Equal values may be shown once.
Experiments:
Rattus norvegicus [1] = assay: Concentration in blood 0.25 hr after administration of compound 4d; format: functional, organism-based
Rattus norvegicus [2] = assay: Concentration in brain 24 hr after administration of compound 4d; format: functional, organism-based
Rattus norvegicus [3] = assay: Concentration in blood 1 hr after administration of compound 4d; format: functional, organism-based
Rattus norvegicus [4] = assay: Concentration in brain 6 hr after administration of compound 4d; format: functional, organism-based
Rattus norvegicus [5] = assay: Concentration in brain 0.25 hr after administration of compound 4d; format: functional, organism-based
Rattus norvegicus [6] = assay: Concentration in brain hr after administration of compound 4d; format: functional, organism-based
Rattus norvegicus [7] = assay: Concentration in brain 3 hr after administration of compound 4d; format: functional, organism-based
[8] = Rate constant in liver homogenate; format: ADME, tissue-based; settings: tissue homogenate
[9] = Rate constant in brain homogenate; format: ADME, tissue-based
[10] = Half life in brain homogenate; format: ADME, tissue-based
[11] = Half life in liver homogenate; format: ADME, tissue-based
Rattus norvegicus [12] = species on record: Rattus norvegicus; assay: Rate constant in whole rat blood; format: ADME
[13] = Partition coefficient (logP); format: physicochemical; settings: octanol/water
[14] = Half life in whole rat blood; format: ADME

Row | Compound | Concentration (Rattus norvegicus [1]) [ng/g] | Concentration (Rattus norvegicus [2]) [ng/g] | Concentration (Rattus norvegicus [3]) [ng/g] | Concentration (Rattus norvegicus [4]) [ng/g] | Concentration (Rattus norvegicus [5]) [ng/g] | Concentration (Rattus norvegicus [6]) | Concentration (Rattus norvegicus [7]) [ng/g] | k [8] [min⁻¹] | k [9] [min⁻¹] | half-life [10] [min] | half-life [11] [min] | k (Rattus norvegicus [12]) [min⁻¹] | logP [13] | half-life [14] [min]
1 | C#C[C@]1(OC(=O)c2ccc[n+](C)c2)CC[C@H]2[C@@H]3CCc4cc(O)ccc4[C@H]3CC[C@@]21C | 0.822 | 7.79 | 0.552 | 7.07 | 7.16 | 7.16 ng/g and 7.35 ng/g | 7.35 |  |  |  |  |  |  | 
2 | CN1C=CCC(C(=O)O[C@H]2CC[C@H]3[C@@H]4CCc5cc(O)ccc5[C@H]4CC[C@]23C)=C1 |  |  |  |  |  |  |  | 0.0283 | 0.0537 | 12.9 | 30.5 | 0.0175 | 4.5 | 39.6
3 | C#C[C@]1(OC(=O)C2=CN(C)C=CC2)CC[C@H]2[C@@H]3CCc4cc(O)ccc4[C@H]3CC[C@@]21C |  |  |  |  |  |  |  | 0.0227 | 0.0567 | 12.4 | 24.5 | 0.0139 | 4.53 | 49.9
